For 27 compounds, IC50 results are on record in patent US9708308B2, “Factor IXa inhibitors” (Merck Sharp & Dohme Corp., priority 2012, dated 2017).

The IC50 is the concentration at which inhibition is half-maximal.

This assay has as its target Factor IXa (Homo sapiens, UniProt P00740). Kind of assay: Determination of inhibitory activity against Factor IXa (cleavage of fluorescent peptide substrate). Type of assay: biochemical. The settings on record: cleavage of fluorescent peptide CH3SO2-D-CHG-Gly-Arg-AFC, release of AFC; read-out: FIXa IC50. The essentials: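 Factor IXa activity followed via cleavage of CH3SO2-D-CHG-Gly-Arg-AFC, releasing AFC. Fluorescence read at excitation 405 nm, emission 510 nm.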

Each structure is given as a SMILES string.

Sequence of Factor IXa (P00740 227-461 limits assumed): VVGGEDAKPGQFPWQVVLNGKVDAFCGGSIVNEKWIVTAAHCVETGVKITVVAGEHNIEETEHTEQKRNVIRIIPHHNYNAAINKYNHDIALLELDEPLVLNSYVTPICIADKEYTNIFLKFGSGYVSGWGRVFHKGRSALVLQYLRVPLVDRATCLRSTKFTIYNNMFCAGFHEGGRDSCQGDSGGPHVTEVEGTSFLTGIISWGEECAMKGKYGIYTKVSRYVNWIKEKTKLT
Sequence of Factor IXa (P00740 47-191 partner limits assumed): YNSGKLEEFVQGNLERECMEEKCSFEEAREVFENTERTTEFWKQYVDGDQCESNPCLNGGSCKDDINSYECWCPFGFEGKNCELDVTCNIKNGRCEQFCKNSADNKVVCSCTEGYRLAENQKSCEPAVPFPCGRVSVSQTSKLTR

Consider `C[C@](O)(C(=O)Nc1ccc2c(N)noc2c1)[C@H]1OCCN(c2nn(-c3ccnc(C#N)c3)cc2Cl)C1=O` [Example 34, (R)—N-(3-aminobenzo[d]isoxazol-6-yl)-2-((R)-4-(4-chloro-1-(2-cyanopyridin-4-yl)-1H-pyrazol-3-yl)-3-oxomorpholin-2-yl)-2-hydroxypropanamide], for which the IC50 was 0.57 µM.
In the case of `CC(C)Oc1cc(-n2ccc(N3CCO[C@H]([C@@](C)(O)C(=O)Nc4ccc5c(N)noc5c4)C3=O)n2)ccn1` [Example 24, (R)—N-(3-aminobenzo[d]isoxazol-6-yl)-2-hydroxy-2-((R)-4-(1-(2-isopropoxypyridin-4-yl)-1H-pyrazol-3-yl)-3-oxomorpholin-2-yl)propanamide] it was 0.387 µM; in that of `C[C@](O)(C(=O)Nc1ccc2c(N)noc2c1)[C@H]1OCCN(c2ccn(-c3ccnc(C#N)c3)n2)C1=O` [Example 21, (R)—N-(3-aminobenzo[d]isoxazol-6-yl)-2-((R)-4-(1-(2-cyanopyridin-4-yl)-1H-pyrazol-3-yl)-3-oxomorpholin-2-yl)-2-hydroxypropanamide], 0.016 µM.
`COc1cc(-c2ccc(N3CCO[C@H]([C@@](C)(O)C(=O)Nc4ccc5c(N)noc5c4)C3=O)o2)ccn1` [Example 63, (R)—N-(3-aminobenzo[d]isoxazol-6-yl)-2-hydroxy-2-((R)-4-(5-(2-methoxypyridin-4-yl)furan-2-yl)-3-oxomorpholin-2-yl)propanamide]: the IC50 worked out at 0.131 µM.
The result for `Cc1cc(-n2ccc(N3CCO[C@H]([C@@](C)(O)C(=O)Nc4ccc5c(N)noc5c4)C3=O)n2)ccn1` [Example 19, (R)—N-(3-aminobenzo[d]isoxazol-6-yl)-2-hydroxy-2-((R)-4-(1-(2-methylpyridin-4-yl)-1H-pyrazol-3-yl)-3-oxomorpholin-2-yl)propanamide] reads 0.0719 µM.
For `C[C@]1([C@@H](O)C(=O)Nc2cc(F)c3c(N)noc3c2)OCCN(c2ccn(-c3ccnnc3)n2)C1=O` [Example 142, (R)—N-(3-amino-4-fluorobenzo[d]isoxazol-6-yl)-2-hydroxy-2-((R)-2-methyl-3-oxo-4-(1-(pyridazin-4-yl)-1H-pyrazol-3-yl)morpholin-2-yl)acetamide], the 50% inhibitory concentration (IC50) was 0.00627 µM.
The result for `CC1(C)CN(c2nn(-c3ccnnc3)cc2F)C(=O)[C@@H]([C@@H](O)C(=O)Nc2ccc3c(N)noc3c2)O1` [Example 173, (R)—N-(3-aminobenzo[d]isoxazol-6-yl)-2-((R)-4-(4-fluoro-1-(pyridazin-4-yl)-1H-pyrazol-3-yl)-6,6-dimethyl-3-oxomorpholin-2-yl)-2-hydroxyacetamide] reads 0.0211 µM; that for `C[C@](O)(C(=O)Nc1ccc2c(N)noc2c1)[C@H]1OCCN(c2ccn(-c3cnnc(C(N)=O)c3)n2)C1=O` [Example 5, 5-(3-((R)-2-((R)-1-((3-Aminobenzo[d]isoxazol-6-yl)amino)-2-hydroxy-1-oxopropan-2-yl)-3-oxomorpholino)-1H-pyrazol-1-yl)pyridazine-3-carboxamide], 0.0202 µM.
In the case of `C[C@](O)(C(=O)Nc1ccc2c(N)noc2c1)[C@H]1OCCN(c2ccn(-c3ccc(C(=O)O)cc3)n2)C1=O` [Example 15, 4-(3-((R)-2-((R)-1-((3-aminobenzo[d]isoxazol-6-yl)amino)-2-hydroxy-1-oxopropan-2-yl)-3-oxomorpholino)-1H-pyrazol-1-yl)benzoic acid] it was 0.289 µM; in that of `C[C@](O)(C(=O)Nc1ccc2c(N)noc2c1)[C@H]1OCCN(c2nn(-c3cnnc(C#N)c3)cc2F)C1=O` [Example 48, (R)—N-(3-aminobenzo[d]isoxazol-6-yl)-2-((R)-4-(1-(6-cyanopyridazin-4-yl)-4-fluoro-1H-pyrazol-3-yl)-3-oxomorpholin-2-yl)-2-hydroxypropanamide], 0.00415 µM; in that of `C[C@](O)(C(=O)Nc1ccc2c(N)noc2c1)[C@H]1OCCN(c2nn(-c3ccc(F)cc3)cc2F)C1=O` [Example 17, (R)—N-(3-aminobenzo[d]isoxazol-6-yl)-2-((R)-4-(4-fluoro-1-(4-fluorophenyl)-1H-pyrazol-3-yl)-3-oxomorpholin-2-yl)-2-hydroxypropanamide], 0.548 µM.
As for `COc1cc(-n2cc(F)c(N3CCO[C@H]([C@@](C)(O)C(=O)Nc4ccc5c(N)noc5c4)C3=O)n2)cnn1` [Example 49, (R)—N-(3-aminobenzo[d]isoxazol-6-yl)-2-((R)-4-(4-fluoro-1-(6-methoxypyridazin-4-yl)-1H-pyrazol-3-yl)-3-oxomorpholin-2-yl)-2-hydroxypropanamide], the 50% inhibitory concentration (IC50) was 0.00648 µM.
As for `Cc1cc(N2CCO[C@](C)([C@@H](O)C(=O)Nc3ccc4c(N)noc4c3)C2=O)nn1-c1ccnc(C(F)(F)F)c1` [Example 96, (R)—N-(3-aminobenzo[d]isoxazol-6-yl)-2-hydroxy-2-((R)-2-methyl-4-(5-methyl-1-(2-(trifluoromethyl)pyridin-4-yl)-1H-pyrazol-3-yl)-3-oxomorpholin-2-yl)acetamide], the IC50 was 0.0491 µM.
The result for `Cc1nocc1-c1cccc(N2CCO[C@](C)([C@@H](O)C(=O)Nc3ccc4c(N)noc4c3)C2=O)n1` [Example 115, (R)—N-(3-aminobenzo[d]isoxazol-6-yl)-2-hydroxy-2-((R)-2-methyl-4-(6-(3-methylisoxazol-4-yl)pyridin-2-yl)-3-oxomorpholin-2-yl)acetamide] reads 0.0682 µM; that for `C[C@]1([C@@H](O)C(=O)Nc2ccc3c(N)noc3c2)OCCN(c2ccn(-c3ccc(F)cc3)n2)C1=O` [Example 79, (R)—N-(3-aminobenzo[d]isoxazol-6-yl)-2-((R)-4-(1-(4-fluorophenyl)-1H-pyrazol-3-yl)-2-methyl-3-oxomorpholin-2-yl)-2-hydroxyacetamide], 0.17 µM.
The result for `C[C@](O)(C(=O)Nc1cnc2c(N)noc2c1)[C@H]1OCCN(c2ccn(-c3ccncc3)n2)C1=O` [Example 144, (R)—N-(3-aminoisoxazolo[4,5-b]pyridin-6-yl)-2-hydroxy-2-((R)-3-oxo-4-(1-(pyridin-4-yl)-1H-pyrazol-3-yl)morpholin-2-yl)propanamide] reads 0.458 µM.
In the case of `C[C@](O)(C(=O)Nc1ccc2c(N)noc2c1)[C@H]1OCCN(c2ccc3ccncc3n2)C1=O` [Example 69, (R)-2-((R)-4-(1,7-naphthyridin-2-yl)-3-oxomorpholin-2-yl)-N-(3-aminobenzo[d]isoxazol-6-yl)-2-hydroxypropanamide] it was 0.384 µM.
With `C[C@](O)(C(=O)Nc1ccc2c(N)noc2c1)[C@@]1(C)OCCN(c2ccn(-c3ccnnc3)n2)C1=O` [Example 148, (R)—N-(3-Aminobenzo[d]isoxazol-6-yl)-2-hydroxy-2-((R)-2-methyl-3-oxo-4-(1-(pyridazin-4-yl)-1H-pyrazol-3-yl)morpholin-2-yl)propanamide], the IC50 was determined as 0.0626 µM.
In the case of `C[C@](O)(C(=O)Nc1ccc2c(N)noc2c1)[C@H]1OCCN(c2nn(-c3ccnc(C(F)(F)F)n3)cc2F)C1=O` [Example 57, (R)—N-(3-aminobenzo[d]isoxazol-6-yl)-2-((R)-4-(4-fluoro-1-(2-(trifluoromethyl)pyrimidin-4-yl)-1H-pyrazol-3-yl)-3-oxomorpholin-2-yl)-2-hydroxypropanamide] it was 0.0637 µM; in that of `CC[C@]1([C@@H](O)C(=O)Nc2ccc3c(N)noc3c2)OCCN(c2cccc(C(F)(F)F)n2)C1=O` [Example 74, (R)—N-(3-Aminobenzo[d]isoxazol-6-yl)-2-((R)-2-ethyl-3-oxo-4-(6-(trifluoromethyl)pyridin-2-yl)morpholin-2-yl)-2-hydroxyacetamide], 0.408 µM.
The result for `Cc1noc(C)c1-c1cccc(N2CCO[C@](C)([C@@H](O)C(=O)Nc3ccc4c(N)noc4c3)C2=O)n1` [Example 116, (R)—N-(3-aminobenzo[d]isoxazol-6-yl)-2-((R)-4-(6-(3,5-dimethylisoxazol-4-yl)pyridin-2-yl)-2-methyl-3-oxomorpholin-2-yl)-2-hydroxyacetamide] reads 0.0935 µM.
`C[C@](O)(C(=O)Nc1ccc2c(N)noc2c1)[C@H]1OCCN(c2ccn(-c3cnnc(OC4CCC4)c3)n2)C1=O` [Example 43, (R)—N-(3-aminobenzo[d]isoxazol-6-yl)-2-((R)-4-(1-(6-cyclobutoxypyridazin-4-yl)-1H-pyrazol-3-yl)-3-oxomorpholin-2-yl)-2-hydroxypropanamide]: the IC50 was 0.535 µM.
In the case of `[2H]C([2H])([2H])Oc1cc(-n2ccc(N3CCO[C@](C)([C@@H](O)C(=O)Nc4ccc5c(N)noc5c4)C3=O)n2)cnn1` [Example 99, (2R)—N-(3-amino-1,2-benzoxazol-6-yl)-2-hydroxy-2-[(2R)-2-methyl-3-oxo-4-[1-[6-(trideuteriomethoxy)pyridazin-4-yl]pyrazol-3-yl]morpholin-2-yl]acetamide] it was 0.0037 µM; in that of `COc1cc(-n2cc(Cl)c(N3CCO[C@H]([C@@](C)(O)C(=O)Nc4ccc5c(N)noc5c4)C3=O)n2)ccn1` [Example 33, (R)—N-(3-aminobenzo[d]isoxazol-6-yl)-2-((R)-4-(4-chloro-1-(2-methoxypyridin-4-yl)-1H-pyrazol-3-yl)-3-oxomorpholin-2-yl)-2-hydroxypropanamide], 0.817 µM.
In the case of `C[C@]1([C@@H](O)C(=O)Nc2ccc3c(N)noc3c2)OCCN(c2ccn(-c3c(F)cncc3F)n2)C1=O` [Example 95, (R)—N-(3-aminobenzo[d]isoxazol-6-yl)-2-((R)-4-(1-(3,5-difluoropyridin-4-yl)-1H-pyrazol-3-yl)-2-methyl-3-oxomorpholin-2-yl)-2-hydroxyacetamide] it was 0.251 µM; in that of `CC1(C)CN(c2ccn(-c3ccnnc3)n2)C(=O)[C@@H]([C@@H](O)C(=O)Nc2ccc3c(N)noc3c2)O1` [Example 172, (R)—N-(3-aminobenzo[d]isoxazol-6-yl)-2-((R)-6,6-dimethyl-3-oxo-4-(1-(pyridazin-4-yl)-1H-pyrazol-3-yl)morpholin-2-yl)-2-hydroxyacetamide], 0.0018 µM.
In the case of `C[C@](O)(C(=O)Nc1ccc2c(N)noc2c1)[C@H]1OCCN(c2ccn(-c3cnnc(N4CCC4)c3)n2)C1=O` [Example 38, (R)—N-(3-aminobenzo[d]isoxazol-6-yl)-2-((R)-4-(1-(6-(azetidin-1-yl)pyridazin-4-yl)-1H-pyrazol-3-yl)-3-oxomorpholin-2-yl)-2-hydroxypropanamide], the half-maximal inhibitory concentration (IC50) worked out at 0.0232 µM.
